From patent US20050187288A1, “Beta-lapachone and methods of treating cancer” (priority 2004, published 2005)
Like-named read-outs stand apart in the source and are kept apart here.

Assays:
MCF-7 = assay: cells; settings: Homo sapiens, MCF7, read-out: LC50 (Replicate Results), MCF-7, 4 hour exposure, colonies after 14-21 days
Procedure: (§1) Control plates received the same volume of DMSO alone. After a 4 hour exposure the drug was carefully removed, and drug-free medium could be added. […] Colonies of greater than 50 cells were scored as survivors. Cells were maintained at 37° C. in 5% CO2 in complete humidity.

[1] = system: human breast cancer cells (MCF-7); assay: Colony formation assay, cancer vs normal breast cells; assay type: cell-based; settings: MCF-7, 4 h treatment
From the text: After 10-20 days, cells were fixed and stained with modified Wright-Giemsa stain.

G480 lung cancer cells = assay: Colony formation assay, single agents and combination; assay type: cell-based
From the text: Control plates received the same volume of DMSO alone. […] Treated wells were presented as percentage of control. Data were presented as an average (+SEM) from three independent experiments.

SK-MEL-28 [2] = settings: human, 4 h
Procedure: as §1

[3] = system: multiple myeloma (MM) cells; assay: MTT assay of multiple myeloma cells; assay type: cell-based, human; settings: 4 μM, 24 h, all seven MM cell lines
[4] = in vivo
[5] = Stability on incubation in human plasma; assay type: in vitro ADME; settings: incubated in human plasma at 37° C. for 16 hrs; previous studies
E2F-1 = E2F-1 protein expression by Western blot in Paca-2 cells; assay type: cell-based, human; settings: 0.5 hours exposure
Procedure: Cells were harvested and whole cell lysates were prepared and resolved by SDS/PAGE, then Western blots were prepared using E2F-1 antibody obtained from Santa Cruz Biotechnology (Santa Cruz, Calif.) and an enhanced chemiluminescence assay system (Amersham Pharmacia).

SK-MEL-28 [6] = assay: cells; settings: Homo sapiens, SK-MEL-28, read-out: LC50 (Replicate Results), SK-MEL-28, 4 hour exposure, colonies after 14-21 days
Procedure: as §1

[7] = 4 μM for 4 hours, vs carrier alone

CC1(C)CCC2=C(O1)c1ccccc1C(=O)C2=O [β-lapachone, 3,4-dihydro-2,2-dimethyl-2H-naphtho [1,2-b]pyran-5,6-dione]
CC50 (MCF-7): 1450 nM | concentrations giving essentially complete elimination of colonies [1]: ≥ 24 µM | cell death (G480 lung cancer cells; [7]): 68% | survival of cells (G480 lung cancer cells; [7]): 32% | Colonies (percent control) (G480 lung cancer cells; G480, β-lapachone 4 μM, 4 hours, average (SEM) of three experiments): 32 (0.3) percent control | CC50 (SK-MEL-28 [2]): 2630 nM | cell viability in cultures [3]: significantly decreased | doses without significant toxicity ([4]; Sprague-Dawley (Hsd:SD) rats, Beagle dogs, rat and dog, iv, 4 weeks): less than 270 mg/m^2 | bone marrow suppression, gastrointestinal toxicity, alopecia [4]: no evidence of bone marrow suppression, gastrointestinal toxicity or alopecia | major organ toxicity (myelosuppression, hepatic, renal, neurotoxicity, cardiotoxicity) [4]: No evidence of major organ toxicity | stability in human plasma [5]: stable to degradation | lowest concentration tested, at which E2F-1 protein is induced (E2F-1): 0.5 µM | CC50 (SK-MEL-28 [6]): 2400 nM
